Measured values: publication PMC7251123, “CX-5461 activates the DNA damage response and demonstrates therapeutic efficacy in high-grade serous ovarian cancer” (Nature Communications, 2020)
Several values for one entry are separate records, joined by “and”; a condition that tells them apart may be missing. Identical values can stand only once. Like-named read-outs stand apart in the source and are kept apart here.

Tested on: Pol I transcription
Test: Inhibition of Pol I transcription: 47S precursor rRNA levels by quantitative RT-PCR after 1 h treatment
Assay type: cell-based, human
Conditions: for 47S precursor rRNA level, fold change relative to vehicle-treated controls: individual replicates; for IC50: Homo sapiens
Method: Fig. 1 Sensitivity of ovarian cancer (OVCA) cell lines to CX-5461. a CX-5461 doses that induce 50% growth inhibition (GI50) at 48 hours. Error bars represent mean ± standard deviation (SD). Asterisks denote mutated TP53 status. […] Information regarding each cell lines source, mean G1_50 values, SD and N values are outlined in Supplementary Table 1. […] Statistical analysis was performed using a two-sided Mann–Whitney test. Error bars represent mean ± SD. c Baseline rDNA transcription rates of OVCA cell lines (listed in (d)), as determined by quantitative real-time PCR (qRT-PCR) analysis using primers specific to the external transcribed spacer 5’ETS (+413–521 bp) relative to the transcription start site (TSS). Expression levels in each cell line were normalised to Vimentin mRNA and expressed as fold change relative to TOV112D cells. Each dot represents the mean value of n = 3 biologically independent experiments per cell line (Individual data points are provided in Supplementary Data 4). Error bars represent mean ± SD. Statistical analysis was performed using a two-tailed unpaired t test. d Dose-response curves of 47S precursor rRNA levels measured by quantitative RT-PCR. OVCA cell lines were treated with vehicle or increasing drug concentrations of CX-5461 (0.001, 0.01, 0.03, 0.1, 0.3, 1 and 3 μM) for 1 h before RNA was harvested. Expression levels were normalised to Vimentin mRNA and expressed as fold change relative to vehicle-treated controls. Shown are the mean of n = 3 independent biological experiments for each cell line. (Individual data points are provided in Supplementary Data 4). e The mean inhibitory concentration values that led to 50% transcription inhibition (IC50) (of n = 3 biologically independent experiments for each cell line) from D are presented (Individual data points are provided in Supplementary Data 4). Error bars represent mean ± SD. Statistical analysis was performed using a two-sided Mann–Whitney test.
For Reverse-transcription qPCR analysis, cells were lysed, RNA extracted, and first-strand cDNA synthesized using random hexamer primers (Promega, C1181) and Superscript III (Invitrogen,18080044). Quantitative PCR (qPCR) was performed in duplicate using the FAST SYBR Green dye (Applied Biosystems, 4385610) on the StepOnePlus real-time PCR system (Applied Biosystems). Primer sequences are listed in (Supplementary Table 3).
Dose-response curves of 4 7S precursor rRNA levels (Figure 1D) measured by quantitative RT-PCR after 1h treatment. Expression levels
were normalised to Vimentin mRNA and expressed as fold change relative to vehicle-treated controls.
IC50 doses (Figure 1E) were determined from dose response curves in Figure 1D
using GraphPad Prism version 8.

- IC50 (1 h, 2008, 1 h, mean n=3, read-out: IC50 Pol I transcription): 48.8 nM
- IC50 (1 h, ES2, 1 h, mean n=3, read-out: IC50 Pol I transcription): 55.1 nM
- IC50 (1 h, JHOC9, 1 h, mean n=3, read-out: IC50 Pol I transcription): 268 nM
- IC50 (1 h, JHOM1, 1 h, mean n=3, read-out: IC50 Pol I transcription): 202 nM
- IC50 (1 h, KURAMOCHI, 1 h, mean n=3, read-out: IC50 Pol I transcription): 47.8 nM
- IC50 (1 h, RMG2, 1 h, mean n=3, read-out: IC50 Pol I transcription): 114 nM
- IC50 (1 h, sensitive and resistant OVCA cell lines, 1 h treatment, read-out: IC50 (concentration inhibiting Pol I transcription by 50%), range over cell lines): 38 to 285 nM
- IC50 (A2780, 1 h, mean n=3, read-out: IC50 Pol I transcription): 63.3 nM
- IC50 (COLO 704, 1 h, COLO704, 1 h, mean n=3, read-out: IC50 Pol I transcription): 96.8 nM
- IC50 (EFO-21, 1 h, EFO21, 1 h, mean n=3, read-out: IC50 Pol I transcription): 65.4 nM
- IC50 (IGROV-1, 1 h, IGROV1, 1 h, mean n=3, read-out: IC50 Pol I transcription): 38.4 nM
- IC50 (OV-90, 1 h, OV90, 1 h, mean n=3, read-out: IC50 Pol I transcription): 117 nM
- IC50 (OVCAR-3, 1 h, OVCAR3, 1 h, mean n=3, read-out: IC50 Pol I transcription): 67.4 nM
- IC50 (OVCAR-4, 1 h, OVCAR4, 1 h, mean n=3, read-out: IC50 Pol I transcription): 88.5 nM
- IC50 (OVCAR-8, 1 h, OVCAR8, 1 h, mean n=3, read-out: IC50 Pol I transcription): 97.6 nM
- IC50 (TOV112D, 1 h, TOV112D, 1 h, mean n=3, read-out: IC50 Pol I transcription): 134 nM
Compound: Cc1cnc(CNC(=O)c2c(=O)c3ccc(N4CCCN(C)CC4)nc3n3c2sc2ccccc23)cn1 [CX-5461]
- 47S precursor rRNA level, fold change relative to vehicle-treated controls (A2780, CX-5461 0.00000001 M, 1 h): 1.227 and 1.156 and 0.5552
- 47S precursor rRNA level, fold change relative to vehicle-treated controls (A2780, CX-5461 0.00000003 M, 1 h): 1.079 and 0.6056 and 0.5354
- 47S precursor rRNA level, fold change relative to vehicle-treated controls (A2780, CX-5461 0.0000001 M, 1 h): 0.7784 and 0.3051 and 0.7248
- 47S precursor rRNA level, fold change relative to vehicle-treated controls (A2780, CX-5461 0.0000003 M, 1 h): 0.4946 and 0.2868 and 0.2848
- 47S precursor rRNA level, fold change relative to vehicle-treated controls (A2780, CX-5461 0.000001 M, 1 h): 0.1884 and 0.1928 and 0.2616
- 47S precursor rRNA level, fold change relative to vehicle-treated controls (A2780, CX-5461 0.000003 M, 1 h): 0.1746 and 0.05092 and 0.1316
- 47S precursor rRNA level, fold change relative to vehicle-treated controls (A2780, CX-5461 1E-09 M, 1 h): 1.211 and 0.7921 and 0.6449
- 47S precursor rRNA level, fold change relative to vehicle-treated controls (EFO21, CX-5461 0.00000001 M, 1 h): 1.115 and 1.095 and 1.792
- 47S precursor rRNA level, fold change relative to vehicle-treated controls (EFO21, CX-5461 0.00000003 M, 1 h): 1.11 and 1.692 and 0.987
- 47S precursor rRNA level, fold change relative to vehicle-treated controls (EFO21, CX-5461 0.0000001 M, 1 h): 0.7444 and 0.9773 and 0.668
- 47S precursor rRNA level, fold change relative to vehicle-treated controls (EFO21, CX-5461 0.0000003 M, 1 h): 0.2419 and 0.3103 and 0.414
- 47S precursor rRNA level, fold change relative to vehicle-treated controls (EFO21, CX-5461 0.000001 M, 1 h): 0.2002 and 0.2399 and 0.3839
- 47S precursor rRNA level, fold change relative to vehicle-treated controls (EFO21, CX-5461 0.000003 M, 1 h): 0.1871 and 0.2673 and 0.0006867
- 47S precursor rRNA level, fold change relative to vehicle-treated controls (EFO21, CX-5461 1E-09 M, 1 h): 1.492 and 1.313 and 0.8129
- 47S precursor rRNA level, fold change relative to vehicle-treated controls (JHOC9, CX-5461 0.00000001 M, 1 h): 0.9254 and 0.9049 and 1.002
- 47S precursor rRNA level, fold change relative to vehicle-treated controls (JHOC9, CX-5461 0.00000003 M, 1 h): 1.057 and 1.034 and 0.8359
- 47S precursor rRNA level, fold change relative to vehicle-treated controls (JHOC9, CX-5461 0.0000001 M, 1 h): 0.8119 and 0.7939 and 0.6945
- 47S precursor rRNA level, fold change relative to vehicle-treated controls (JHOC9, CX-5461 0.0000003 M, 1 h): 0.5763 and 0.5636 and 0.384
- 47S precursor rRNA level, fold change relative to vehicle-treated controls (JHOC9, CX-5461 0.000001 M, 1 h): 0.3587 and 0.3508 and 0.2158
- 47S precursor rRNA level, fold change relative to vehicle-treated controls (JHOC9, CX-5461 0.000003 M, 1 h): 0.08402 and 0.08216 and 0.06114
- 47S precursor rRNA level, fold change relative to vehicle-treated controls (JHOC9, CX-5461 1E-09 M, 1 h): 1.047 and 1.024 and 0.8051
- 47S precursor rRNA level, fold change relative to vehicle-treated controls (OV90, CX-5461 1E-09 M, 1 h): 1.356
- 47S precursor rRNA level, fold change relative to vehicle-treated controls (RMG2, CX-5461 0.00000001 M, 1 h): 1.019 and 0.9292 and 0.7914
- 47S precursor rRNA level, fold change relative to vehicle-treated controls (RMG2, CX-5461 0.00000003 M, 1 h): 0.8882 and 0.4552 and 0.4564
- 47S precursor rRNA level, fold change relative to vehicle-treated controls (RMG2, CX-5461 0.0000001 M, 1 h): 0.8694 and 0.414 and 0.3672
- 47S precursor rRNA level, fold change relative to vehicle-treated controls (RMG2, CX-5461 0.0000003 M, 1 h): 0.5159 and 0.1241 and 0.09886
- 47S precursor rRNA level, fold change relative to vehicle-treated controls (RMG2, CX-5461 0.000001 M, 1 h): 0.2164 and 0.1124 and 0.1026
- 47S precursor rRNA level, fold change relative to vehicle-treated controls (RMG2, CX-5461 0.000003 M, 1 h): 0.06697 and 0.02897 and 0.03341
- 47S precursor rRNA level, fold change relative to vehicle-treated controls (RMG2, CX-5461 1E-09 M, 1 h): 0.7818 and 0.717 and 0.6208
- 47S precursor rRNA level, fold change relative to vehicle-treated controls (TOV112D, CX-5461 0.00000001 M, 1 h): 1.178 and 0.9492
- 47S precursor rRNA level, fold change relative to vehicle-treated controls (TOV112D, CX-5461 0.00000003 M, 1 h): 0.9271
- 47S precursor rRNA level, fold change relative to vehicle-treated controls (TOV112D, CX-5461 0.0000001 M, 1 h): 1.01
- 47S precursor rRNA level, fold change relative to vehicle-treated controls (TOV112D, CX-5461 0.0000003 M, 1 h): 0.388 and 0.509
- 47S precursor rRNA level, fold change relative to vehicle-treated controls (TOV112D, CX-5461 0.000001 M, 1 h): 0.1661 and 0.2245 and 0.333
- 47S precursor rRNA level, fold change relative to vehicle-treated controls (TOV112D, CX-5461 0.000003 M, 1 h): 0.1644 and 0.0787 and 0.1952
- 47S precursor rRNA level, fold change relative to vehicle-treated controls (TOV112D, CX-5461 1E-09 M, 1 h): 1.079 and 1.012 and 1.217
